Reference: patent US20030100565A1, “Method for the treatment or prevention of atopic dermatitis” (Boehringer Ingelheim International GmbH, priority 2001, published 2003)

How the values were obtained:
SP-induced scratching [1] = test: Effect on SP-induced scratching in mice; format: in vivo, ddY mice; conditions: for effect on SP-induced scratching compared with Compounds Ia and Ib: mice, dose not stated; for scratching behavior count induced by SP: 1 h before intradermal SP, FIG. 1, control 50.5±12.1, mean±S.E.; for scratching behaviour count induced by SP: another experiment
Description: Assay: Effect of NK1 Receptor Antagonist Ia, on SP-Induced Scratching in Mice Male ddY mice (Japan SLC, Ltd., Shizuoka, Japan) of 8-9 weeks of ages weighing 34-43 g, were used in the experiment. Mice were fasted 4 hours prior to the initiation of the experiment with free access to water. Epinastine and NK1 receptor antagonist of formulae Ia, Ib, Ic and Id (Compounds Ia to Id) were provided by Boehringer Ingelheim Pharma K.G. (Germany). SP (lot. No. 80K5 104) was supplied by Sigma Co., Ltd. (USA) and dissolved in physiological saline. Before recording of behavior, the mice (two animals per one cage) were put into an acryl cage for at least 5 hours for acclimation. […] Playing back of video served for counting scratching behavior. […] Data were analyzed by One-way ANOVA and post hoc Tukey test; p<0.05 value was considered. Data presented as the mean±S.E.

SP-induced scratching [2] = test: Effect on SP-induced scratching in guinea pigs; format: in vivo, Hartley guinea pigs; conditions: for effect on SP-induced scratching compared with Compounds Ia and Id: dose not stated
Description: Assay: Effect of NK1 Receptor Antagonist Ia, on SP-Induced Scratching in Guinea Pigs
Male Hartley guinea pigs (Japan SLC, Ltd., Shizuoka, Japan) of 4-5 weeks old weighing 275-395 g were used in the experiment. The guinea pigs were fasted more than 12 hours prior to the initiation of the experiment with free access to water. 6-8 guinea pigs were used for each group.
Prior to the recording of behaviour, the guinea pigs (one animal per cage) were kept in a cage for observation for at least 1 hour for acclimation. Compound Ia was dosed at 1 hour prior to the administration of substance P. […] SP (150 μg/body) was injected intradermally in volume of 20 μL into the rostral back (around interscapular level). Immediately after the administration of SP, the behaviour of the guinea pigs were recorded using VHS video camera for 1 hour with any persons kept out the observation room (sound proof condition). Playing back of video was served for counting the number of scratching behaviour.
The total scratching counts during 60 min of observation were analysed by one-way ANOVA and Dunnett's multiple comparison test between vehicle treatment and drug treatments; p<0.05 value was considered as significant. Scratching counts were expressed as the mean+S.E.

SP-induced scratching [3] = conditions: mice; reported by Inagaki et al., Eur J Pharmacol 2000; cited from earlier work

In the case of CN(CCc1cc(C(F)(F)F)cc(C(F)(F)F)c1)C(=O)[C@H](c1ccccc1)N1CCC(NC(CO)CO)CC1 [Compound Id, (S)-N-[2-(3,5-Bis-trifluormethyl-phenyl)-ethyl]-2-[4-(2-hydroxy-1-hydroxymethyl-ethylamino)-piperidin-1-yl]-N-methyl-2-phenylacetamid], the “effect on SP-induced scratching compared with Compounds Ia and Ib” value (SP-induced scratching [1]) is reported as “Comparable results” and the “inhibition of scratching behaviour induced by substance P” value (SP-induced scratching [2]; guinea pigs, 0.3, 1.0 and 3.0 mg/kg p.o., FIG. 6) is reported as “inhibited”.
With CN(CCc1cc(C(F)(F)F)cc(C(F)(F)F)c1)C(=O)[C@H](c1ccccc1)N1CCC(N(C)CCCO)CC1 [Ic, (S)-N-[2-(3,5-Bis-trifluormethyl-phenyl)-ethyl]-2-{4-[(3-hydroxy-propyl)-methyl-amino]-piperidin-1-yl}-N-methyl-2-phenyl-acetamide] the “effect on SP-induced scratching compared with Compounds Ia and Ib” value (SP-induced scratching [1]) was “Comparable results” and the “effect on SP-induced scratching compared with Compounds Ia and Id” value (SP-induced scratching [2]; guinea pigs) was “Comparable results”.
With “(S)-N-[2-(3,5-Bis-trifluormethyl-phenyl)-ethyl]-2-{4-[cyclopropylmethyl-(3-hydroxy-propyl) -amino]-piperidin-1-yl}-N-methyl-2-phenyl-acetamid [Compound Ib]” the “inhibition of scratching behaviour induced by substance P” value (SP-induced scratching [1]; 30 mg/kg p.o., FIG. 4) was “inhibited” and the “effect on SP-induced scratching compared with Compounds Ia and Id” value (SP-induced scratching [2]; guinea pigs) was “Comparable results”.
In the case of NC1=NCC2c3ccccc3Cc3ccccc3N12 (stereo not shown) [epinastine, reference compound], the “effect on SP-induced scratching” value (SP-induced scratching [3]) is given as “significant effect”, the “scratching behavior count induced by SP” value (SP-induced scratching [1]; 10 mg/kg p.o.) is given as 20.0±8.4 beats/60 min and the “scratching behaviour count induced by SP” value (SP-induced scratching [1]; 10 mg/kg p.o., FIG. 2b, control 51.6±7.8/60 min) is given as 33.7±4.0 beats/60 min.
In the case of CN(CCc1cc(C(F)(F)F)cc(C(F)(F)F)c1)C(=O)[C@H](c1ccccc1)N1CCN(CC2CC2)CC1 [Compound Ia], the “scratching behavior count induced by SP” value (SP-induced scratching [1]; 30 mg/kg p.o.) is reported as 21.1±6.1 beats/60 min, the “scratching behaviour count induced by SP” value (SP-induced scratching [1]; 30 mg/kg p.o., FIG. 2a, control 59.0±6.0/60 min) is reported as 29.9±6.6 beats/60 min and the “dose dependency of effect on SP-induced scratching behavior” value (SP-induced scratching [1]; 10 and 30 mg/kg p.o., FIG. 3, vehicle 51.0±12.9 beats/60 min) is reported as “inhibited the scratching induced by SP, and the effect was dose dependent”. The “overall effect on scratching behaviour (conclusion)” value (SP-induced scratching [1]; ddY mice, effect similar to epinastine) was “apparent inhibitory effect”, the “inhibition of scratching behaviour induced by SP” value (SP-induced scratching [2]; guinea pigs, higher doses of 0.1 mg/kg p.o., FIG. 5.1) was “significant inhibition” and the “inhibition of scratching behaviour induced by SP” value (SP-induced scratching [2]; guinea pigs, lower doses of 0.03 mg/kg p.o., FIG. 5.2) was “tendency to inhibit”. For the same compound, the “inhibition of scratching behaviour induced by SP, dose dependency” value (SP-induced scratching [2]; guinea pigs, p.o., 1 h before SP, FIG. 5) was “inhibited the scratching behaviour induced by SP dose dependently”.
